Key:
giant foxtail [1] = assay: Test A pre-/postemergence greenhouse test; type: in vivo, Setaria faberi; settings: for Foxtail, Giant plant response rating: 0 to 100 scale
Outline: (§1)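 Untreated controls served as the reference for visual injury ratings taken about ten days after spraying. The non-phytotoxic solvent/surfactant formulation was applied preemergence to seeded loam and sand and postemergence to plants two to ten cm high.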

redroot pigweed = assay: Test A pre-/postemergence greenhouse test; type: in vivo, Amaranthus retroflexus; settings: for Pigweed plant response rating: 0 to 100 scale
Outline: as §1

velvetleaf [2] = assay: Test A pre-/postemergence greenhouse test; type: in vivo, Abutilon theophrasti; settings: for Velvetleaf plant response rating: 0 to 100 scale
Outline: as §1

wheat = assay: Test A pre-/postemergence greenhouse test; type: in vivo, Triticum aestivum; settings: for Wheat plant response rating: 0 to 100 scale
Outline: as §1

corn = assay: Test A pre-/postemergence greenhouse test; type: in vivo, Zea mays; settings: for Corn plant response rating: 0 to 100 scale
Outline: as §1

wild oat = assay: Test C pre-/postemergence test; type: in vivo, Avena fatua
Outline: (§2)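 Compounds in a non-phytotoxic solvent with surfactant applied preemergence to seeded pots and, at the same time, postemergence to plants 2–18 cm tall (1- to 4-leaf stage). Paddy tests: pots flooded to 3 cm, compound applied into the water, depth held throughout.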

bermudagrass = assay: Test C pre-/postemergence test; type: in vivo, Cynodon dactylon
Outline: as §2

Surinam grass = assay: Test C pre-/postemergence test; type: in vivo, Brachiaria decumbens; settings: for Surinam Grass plant response rating: preemergence, scale 0 (no effect) to 100 (complete control)
Outline: as §2

giant foxtail [3] = assay: Test C pre-/postemergence test; type: in vivo, Setaria faberii
Outline: as §2

Goosegrass = assay: Test C pre-/postemergence test; type: in vivo, Eleusin indica
Outline: as §2

johnsongrass = assay: Test C pre-/postemergence test; type: in vivo, Sorghum halepense
Outline: as §2

lambsquarters = assay: Test C pre-/postemergence test; type: in vivo, Chenopodium album
Outline: as §2

eastern black nightshade = assay: Test C pre-/postemergence test; type: in vivo, Solanum ptycanthum
Outline: as §2

common ragweed = assay: Test C pre-/postemergence test; type: in vivo, Ambrosia elation
Outline: as §2

velvetleaf [4] = assay: Test C pre-/postemergence test; type: in vivo, Abutilon theophrasti; settings: for Velvetleaf plant response rating: preemergence, scale 0 (no effect) to 100 (complete control)
Outline: as §2

rice = assay: Test C flooded paddy test; type: in vivo, Oryza sativa; settings: Flood
Outline: (§3)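 Ratings were visual and made relative to untreated controls after 13 to 15 greenhouse days.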

duck salad = assay: Test C flooded paddy test; type: in vivo, Heteranthera limosa; settings: Flood
Outline: as §3

barnyardgrass = assay: Test C flooded paddy test; type: in vivo, Echinochloa crus-galli; settings: Flood
Outline: as §3

[5] = Postemergence, 125 g ai/ha, 0 is no effect, 100 is complete control
[6] = Postemergence, 500 g ai/ha, 0 is no effect, 100 is complete control
[7] = Preemergence, 125 g ai/ha, 0 no effect, 100 complete control
[8] = Preemergence, 500 g ai/ha, 0 to 100 scale where 0 is no effect and 100 is complete control
[9] = 31 g ai/ha, Preemergence, scale 0 to 100
[10] = 62 g ai/ha, preemergence, scale 0 (no effect) to 100 (complete control)
[11] = preemergence, 125 g ai/ha, scale 0 (no effect) to 100 (complete control)
[12] = 31 g ai/ha, scale 0 to 100 (0 no effect, 100 complete control)
[13] = 62 g ai/ha, scale 0 to 100, 0 no effect, 100 complete control, 13 to 15 days
[14] = 125 g ai/ha, scale 0 to 100, 0 no effect, 100 complete control, 13 to 15 days
[15] = 250 g ai/ha, scale 0 to 100 (0 no effect, 100 complete control)

With `Cc1cc[n+]([O-])c(S(=O)(=O)C(C)c2c(C(F)(F)F)nn(C)c2Cl)c1` (racemic) [Compound 14] the “Foxtail, Giant plant response rating” value (giant foxtail [1]; [5]) was 70, the “Foxtail, Giant plant response rating” value (giant foxtail [1]; [6]) was 80 and the “Foxtail, Giant plant response rating” value (giant foxtail [1]; [7]) was 90. For the same compound, the “Plant response rating, Foxtail, Giant” value (giant foxtail [1]; [8]) was 100, the “Pigweed plant response rating” value (redroot pigweed; [5]) was 0 and the “Pigweed plant response rating” value (redroot pigweed; [6]) was 10. For the same compound, the “Pigweed plant response rating” value (redroot pigweed; [7]) was 100, the “Plant response rating, Pigweed” value (redroot pigweed; [8]) was 100 and the “Velvetleaf plant response rating” value (velvetleaf [2]; [5]) was 0. For the same compound, the “Velvetleaf plant response rating” value (velvetleaf [2]; [6]) was 60, the “Velvetleaf plant response rating” value (velvetleaf [2]; [7]) was 0 and the “Plant response rating, Velvetleaf” value (velvetleaf [2]; [8]) was 60. The “Wheat plant response rating” value (wheat; [5]) was 40, the “Wheat plant response rating” value (wheat; [6]) was 50 and the “Wheat plant response rating” value (wheat; [7]) was 40. For the same compound, the “Plant response rating, Wheat” value (wheat; [8]) was 60, the “Corn plant response rating” value (corn; [5]) was 0 and the “Corn plant response rating” value (corn; [6]) was 50. The “Corn plant response rating” value (corn; [7]) was 0, the “Plant response rating, Corn” value (corn; [8]) was 70 and the “Oat, Wild plant response rating” value (wild oat; [9]) was 0. For the same compound, the “Oat, Wild plant response rating” value (wild oat; [10]) was 0, the “Plant response rating (0 to 100), Oat, Wild” value (wild oat; Preemergence, 250 g ai/ha) was 75 and the “Oat, Wild plant response rating” value (wild oat; [11]) was 10. For the same compound, the “Bermudagrass plant response rating” value (bermudagrass; [9]) was 80, the “Bermudagrass plant response rating” value (bermudagrass; [10]) was 100 and the “Plant response rating (0 to 100), Bermudagrass” value (bermudagrass; Preemergence, 250 g ai/ha) was 100. For the same compound, the “Bermudagrass plant response rating” value (bermudagrass; [11]) was 100, the “Surinam Grass plant response rating” value (Surinam grass; 62 g ai/ha) was 85 and the “Plant response rating (0 to 100), Surinam Grass” value (Surinam grass; Preemergence, 250 g ai/ha) was 100. The “Surinam Grass plant response rating” value (Surinam grass; 125 g ai/ha) was 95, the “Foxtail, Giant plant response rating” value (giant foxtail [3]; [9]) was 85 and the “Foxtail, Giant plant response rating” value (giant foxtail [3]; [10]) was 85. The “Plant response rating (0 to 100), Foxtail, Giant” value (giant foxtail [3]; Preemergence, 250 g ai/ha) was 100, the “Foxtail, Giant plant response rating” value (giant foxtail [3]; [11]) was 100 and the “Goosegrass plant response rating” value (Goosegrass; [9]) was 100. The “Goosegrass plant response rating” value (Goosegrass; [10]) was 100, the “Plant response rating (0 to 100), Goosegrass” value (Goosegrass; Preemergence, 250 g ai/ha) was 100 and the “Goosegrass plant response rating” value (Goosegrass; [11]) was 100. For the same compound, the “Johnsongrass plant response rating” value (johnsongrass; [9]) was 45, the “Johnsongrass plant response rating” value (johnsongrass; [10]) was 60 and the “Plant response rating (0 to 100), Johnsongrass” value (johnsongrass; Preemergence, 250 g ai/ha) was 100. For the same compound, the “Johnsongrass plant response rating” value (johnsongrass; [11]) was 100, the “Lambsquarters plant response rating” value (lambsquarters; [9]) was 30 and the “Lambsquarters plant response rating” value (lambsquarters; [10]) was 100. The “Plant response rating (0 to 100), Lambsquarters” value (lambsquarters; Preemergence, 250 g ai/ha) was 100, the “Lambsquarters plant response rating” value (lambsquarters; [11]) was 100 and the “Nightshade plant response rating” value (eastern black nightshade; [9]) was 80. For the same compound, the “Nightshade plant response rating” value (eastern black nightshade; [10]) was 100, the “Plant response rating (0 to 100), Nightshade” value (eastern black nightshade; Preemergence, 250 g ai/ha) was 100 and the “Nightshade plant response rating” value (eastern black nightshade; [11]) was 100. For the same compound, the “Ragweed plant response rating” value (common ragweed; [9]) was 0, the “Ragweed plant response rating” value (common ragweed; [10]) was 85 and the “Plant response rating (0 to 100), Ragweed” value (common ragweed; Preemergence, 250 g ai/ha) was 100. For the same compound, the “Ragweed plant response rating” value (common ragweed; [11]) was 85, the “Velvetleaf plant response rating” value (velvetleaf [4]; 62 g ai/ha) was 10 and the “Plant response rating (0 to 100), Velvetleaf” value (velvetleaf [4]; Preemergence, 250 g ai/ha) was 100. The “Velvetleaf plant response rating” value (velvetleaf [4]; 125 g ai/ha) was 100, the “Plant response rating, Rice” value (rice; [12]) was 0 and the “Plant response rating, Rice” value (rice; [13]) was 0. The “Plant response rating, Rice” value (rice; [14]) was 60, the “Plant response rating, Rice” value (rice; [15]) was 70 and the “Plant response rating, Ducksalad” value (duck salad; [12]) was 40. For the same compound, the “Plant response rating, Ducksalad” value (duck salad; [13]) was 50, the “Plant response rating, Ducksalad” value (duck salad; [14]) was 80 and the “Plant response rating, Ducksalad” value (duck salad; [15]) was 100. For the same compound, the “Plant response rating, Barnyardgrass” value (barnyardgrass; [12]) was 0, the “Plant response rating, Barnyardgrass” value (barnyardgrass; [13]) was 0 and the “Plant response rating, Barnyardgrass” value (barnyardgrass; [14]) was 60. For the same compound, the “Plant response rating, Barnyardgrass” value (barnyardgrass; [15]) was 100.
